Results reported in the supplement of paper PMC10307832.

What was measured:
Assay in all cases: relative viability (nuclei count vs DMSO), 5 days (fraction); higher = more cells survive
GSK-J4 + Linsitinib = compound: CCOC(=O)CCNc1cc(N2CCc3ccccc3CC2)nc(-c2ccccn2)n1 [GSK-J4] + C[C@]1(O)C[C@@H](c2nc(-c3ccc4ccc(-c5ccccc5)nc4c3)c3c(N)nccn32)C1 [Linsitinib] (partner 1 µM)
Procedure, shortened: (§1)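 Five library-drug doses in √10 steps were combined with a fixed anchor-drug dose, or a single drug was given alone, by pin tool to lung cancer cell lines in 1536-well plates the day after seeding. Nuclei were stained and counted after 5 days. Relative viability is the nuclei count in treated wells over that in vehicle wells, taken as the median of duplicate plates.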

GSK-J4 + Dasatinib = compound: CCOC(=O)CCNc1cc(N2CCc3ccccc3CC2)nc(-c2ccccn2)n1 [GSK-J4] + Cc1nc(Nc2ncc(C(=O)Nc3c(C)cccc3Cl)s2)cc(N2CCN(CCO)CC2)n1 [Dasatinib] (partner 0.075 µM)
Procedure, shortened: as §1

GSK-J4 + Pemetrexed = compound: CCOC(=O)CCNc1cc(N2CCc3ccccc3CC2)nc(-c2ccccn2)n1 [GSK-J4] + Nc1nc2[nH]cc(CCc3ccc(C(=O)N[C@@H](CCC(=O)O)C(=O)O)cc3)c2c(=O)[nH]1 [Pemetrexed] (partner 0.2 µM)
Procedure, shortened: as §1

AZ3146 + Lapatinib = compound: CN1CCC(CC1)OC2=CC(=C(C=C2)NC3=NC=C4C(=N3)N(C(=O)N4C)C5CCCC5)OC [AZ3146] + CS(=O)(=O)CCNCc1ccc(-c2ccc3ncnc(Nc4ccc(OCc5cccc(F)c5)c(Cl)c4)c3c2)o1 [Lapatinib] (partner 2 µM)
Procedure, shortened: as §1

Row | Cell Line | relative viability (GSK-J4 + Linsitinib; first compound 0.5 µM) | relative viability (GSK-J4 + Linsitinib; first compound 1.581 µM) | relative viability (GSK-J4 + Linsitinib; first compound 5 µM) | relative viability (GSK-J4 + Linsitinib; first compound 15.81 µM) | relative viability (GSK-J4 + Linsitinib; first compound 50 µM) | relative viability (GSK-J4 + Dasatinib; first compound 0.5 µM) | relative viability (GSK-J4 + Dasatinib; first compound 5 µM) | relative viability (GSK-J4 + Dasatinib; first compound 15.81 µM) | relative viability (GSK-J4 + Dasatinib; first compound 50 µM) | relative viability (GSK-J4 + Pemetrexed; first compound 0.5 µM) | relative viability (GSK-J4 + Pemetrexed; first compound 1.581 µM) | relative viability (GSK-J4 + Pemetrexed; first compound 5 µM) | relative viability (GSK-J4 + Pemetrexed; first compound 15.81 µM) | relative viability (GSK-J4 + Pemetrexed; first compound 50 µM) | relative viability (AZ3146 + Lapatinib; first compound 0.08 µM) | relative viability (AZ3146 + Lapatinib; first compound 0.253 µM) | relative viability (AZ3146 + Lapatinib; first compound 0.8 µM) | relative viability (AZ3146 + Lapatinib; first compound 2.53 µM) | relative viability (AZ3146 + Lapatinib; first compound 8 µM) | relative viability (GSK-J4 + Dasatinib; first compound 1.581 µM)
1 | NCI-H2023 | 0.658 | 0.675 | 0.815 | 0.582 | 0.674 | 0.49 | 0.529 | 0.48 | 0.428 | 0.177 | 0.245 | 0.238 | 0.218 | 0.173 | 0.688 | 0.922 | 0.735 | 0.941 | 0.179 | –
2 | NCI-H1792 | 0.543 | 0.296 | 0.518 | 0.465 | 0.635 | 0.805 | 0.817 | 0.529 | 0.809 | 0.799 | 0.595 | 0.501 | 0.632 | 0.777 | 0.854 | 1.09 | 0.868 | 0.936 | 0.954 | –
3 | LC-2-ad | 0.795 | 0.831 | 0.794 | 0.769 | 0.839 | 0.689 | 0.535 | 0.44 | 0.351 | 0.288 | 0.281 | 0.247 | 0.267 | 0.272 | 0.828 | 1.04 | 0.907 | 0.914 | 0.631 | 0.429
4 | LXF-289 | 0.973 | 0.912 | 0.956 | 0.915 | 0.893 | 0.21 | 0.0979 | 0.121 | 0.177 | 0.835 | 0.776 | 0.931 | 0.805 | 0.813 | 0.846 | 0.924 | 0.889 | 0.907 | 0.908 | 0.181
5 | NCI-H2347 | 0.829 | 0.78 | 0.885 | 0.961 | 0.651 | 0.316 | 0.572 | – | 0.261 | 0.417 | 0.411 | 0.378 | 0.394 | 0.442 | 0.853 | 0.832 | 0.939 | 1.04 | 1.03 | 0.286
6 | RERF-LC-KJ | 0.93 | 0.818 | 0.852 | 0.856 | 0.777 | 0.68 | 0.695 | 0.708 | 0.371 | 0.472 | 0.47 | 0.448 | 0.44 | 0.442 | 0.816 | 0.889 | 0.839 | 0.804 | 0.84 | 0.774
7 | NCI-H596 | 1 | 1.08 | 1.07 | 0.938 | 1.02 | 0.562 | 0.645 | 0.497 | 0.599 | 0.519 | 0.485 | 0.473 | 0.465 | 0.549 | 1.05 | 0.94 | 1.21 | 1.08 | 0.979 | 0.611
8 | NCI-H1734 | 0.884 | 0.72 | 0.818 | 0.757 | 0.816 | 0.405 | 0.378 | 0.396 | 0.468 | 0.424 | 0.412 | 0.391 | 0.407 | 0.364 | 1.05 | 1.17 | 1.07 | 1.1 | 0.942 | 0.454
9 | NCI-H1915 | 1.06 | 0.722 | 1.09 | 1.07 | 1.11 | 0.342 | – | 0.316 | 0.352 | 0.41 | 0.518 | – | 0.473 | 0.446 | 1.05 | 0.864 | 1.04 | 0.933 | 1.02 | 0.36
10 | NCI-H838 | 0.973 | 0.982 | – | 0.999 | 1 | 0.325 | 0.23 | 0.266 | 0.275 | 0.242 | 0.219 | 0.218 | 0.248 | 0.199 | 1.07 | 0.939 | 0.935 | 0.858 | 0.32 | 0.24
11 | HCC-15 | 0.845 | 0.793 | 0.892 | 0.785 | 0.629 | 0.624 | 0.526 | 0.476 | 0.393 | 0.225 | 0.225 | 0.217 | 0.209 | 0.245 | 0.873 | 0.819 | 0.896 | 0.857 | 0.832 | –
12 | NCI-H650 | 0.733 | 0.672 | 0.537 | 0.723 | 0.592 | 0.512 | 0.277 | 0.406 | 0.324 | 0.82 | 0.843 | – | 0.833 | 0.842 | 0.804 | 0.844 | 0.667 | 1.02 | 0.973 | 0.507
13 | NCI-H1651 | 0.959 | 0.878 | 1.05 | 0.9 | 0.939 | 0.537 | 0.367 | 0.443 | 0.477 | 0.587 | 0.597 | 0.595 | 0.518 | 0.56 | 0.757 | 0.854 | 0.815 | 0.921 | 0.636 | 0.306
14 | NCI-H2405 | 1.03 | 0.919 | – | 1.07 | 1.1 | 0.231 | – | 0.212 | 0.186 | 1.01 | 1 | – | 1 | 1.02 | 1.11 | – | 0.967 | 1.31 | 1.29 | 0.327
